From patent US5324502A, “Radiopharmaceuticals for imaging the heart” (priority 1992, dated 1994)
Where two headings read alike, the source gives them in different places.

Columns and labels:
[1] = Octanol/water partition coefficient of radiolabeled gallium complexes; format: physicochemical; conditions: octanol/tris buffer, pH 7
Protocol: Octanol/water partition coefficients were measured by vortex mixing 1 mL of 1-octanol and 1 mL of isotonic Tris buffer (pH 7.0) with a 1-5 μL sample of the radiolabeled gallium complex. Following centrifugation at >1200 g for 5 minutes, the octanol and aqueous phases were sampled and counted in an automatic well counter.

[2] = rat
Protocol: The gallium-67 complexes are prepared by ligand exchange from gallium-67 chloride, employing the tris(acetylacetonato)gallium(III) complex as an intermediate. The Ga-67 acetylacetonate in ethanol is reacted with the chelating ligand or ligand precursor at elevated temperature to form rapidly the desired gallium radiopharmaceutical. […] The biodistribution of several radiopharmaceuticals was determined in rats following intravenous injection using techniques previously described (M. A. Green, Nuclear Medicine and Biology 14:59-61, 1987; E. John and M. A. Green, J. Medicinal Chemistry, 33:1764-1770, 1990).
Under ether anesthesia, 1 to 3 μCi (0.1-0.2 mL) of no-carrier-added Ga-67 compound was administered by bolus injection into the femoral vein of male Sprague-Dawley rats. The ether anesthetized rats were sacrificed by decapitation at given time intervals post-injection, organs of interest were removed, weighed, and the gallium-67 activity counted. The biodistribution was calculated as a percentage of the injected dose per gram of tissue and percentage of injected dose per organ for each sample.

CCN(CC)c1ccc(C=NCCCNCCNCCCN=Cc2ccc(N(CC)CC)cc2[O-])c([O-])c1.[67Ga+3] [(4-deaSal)2 BAPEN]
log P [1]: 2.44
% Injected Dose per Gram Tissue, Blood ([2]; i.v., 1 min): 0.80 ± 0.01 % Injected Dose per Gram Tissu
% Injected Dose per Gram Tissue, Brain ([2]; i.v., 1 min): 0.04 ± 0.01 % Injected Dose per Gram Tissu
% Injected Dose per Gram Tissue, Heart ([2]; i.v., 1 min): 0.98 ± 0.07 % Injected Dose per Gram Tissu
% Injected Dose per Gram Tissue, Kidney (one) ([2]; i.v., 1 min): 7.22 ± 0.48 % Injected Dose per Gram Tissu
% Injected Dose per Gram Tissue, Liver ([2]; i.v., 1 min): 4.15 ± 0.25 % Injected Dose per Gram Tissu
% Injected Dose per Gram Tissue, Lungs ([2]; i.v., 1 min): 1.16 ± 0.06 % Injected Dose per Gram Tissu
% Injected Dose per Gram Tissue, Spleen ([2]; i.v., 1 min): 1.22 ± 0.47 % Injected Dose per Gram Tissu
% injected dose in heart, 1 min ([2]; i.v., 1 min, preliminary studies): 0.69 ± 0.05 % injected dose
% Injected Dose Per Gram of Tissue, Blood ([2]; i.v., 5 min): 0.39 ± 0.05 % Injected Dose Per Gram of Tissue
% Injected Dose Per Gram of Tissue, Brain ([2]; i.v., 5 min): 0.02 ± 0.01 % Injected Dose Per Gram of Tissue
% Injected Dose Per Gram of Tissue, Heart ([2]; i.v., 5 min): 0.91 ± 0.06 % Injected Dose Per Gram of Tissue
% Injected Dose Per Gram of Tissue, Kidney (1) ([2]; i.v., 5 min): 7.11 ± 0.89 % Injected Dose Per Gram of Tissue
% Injected Dose Per Gram of Tissue, Liver ([2]; i.v., 5 min): 3.96 ± 0.28 % Injected Dose Per Gram of Tissue
% Injected Dose Per Gram of Tissue, Lungs ([2]; i.v., 5 min): 0.89 ± 0.19 % Injected Dose Per Gram of Tissue
% Injected Dose Per Gram of Tissue, Spleen ([2]; i.v., 5 min): 1.19 % Injected Dose Per Gram of Tissue
% Injected Dose per Gram Tissue, Blood ([2]; i.v., 15 min): 0.20 ± 0.03 % Injected Dose per Gram Tissu
% Injected Dose per Gram Tissue, Brain ([2]; i.v., 15 min): 0.02 ± 0.00 % Injected Dose per Gram Tissu
% Injected Dose per Gram Tissue, Heart ([2]; i.v., 15 min): 0.90 ± 0.06 % Injected Dose per Gram Tissu
% Injected Dose per Gram Tissue, Kidney (one) ([2]; i.v., 15 min): 6.82 ± 0.53 % Injected Dose per Gram Tissu
% Injected Dose per Gram Tissue, Liver ([2]; i.v., 15 min): 3.21 ± 0.25 % Injected Dose per Gram Tissu
% Injected Dose per Gram Tissue, Lungs ([2]; i.v., 15 min): 0.70 ± 0.07 % Injected Dose per Gram Tissu
% Injected Dose per Gram Tissue, Spleen ([2]; i.v., 15 min): 1.27 ± 0.17 % Injected Dose per Gram Tissu
% Injected Dose per Gram Tissue, Blood ([2]; i.v., 120 min): 0.10 ± 0.01 % Injected Dose per Gram Tissu
% Injected Dose per Gram Tissue, Brain ([2]; i.v., 120 min): 0.02 ± 0.01 % Injected Dose per Gram Tissu
% Injected Dose per Gram Tissue, Heart ([2]; i.v., 120 min): 0.92 ± 0.10 % Injected Dose per Gram Tissu
% Injected Dose per Gram Tissue, Kidney (one) ([2]; i.v., 120 min): 5.69 ± 0.75 % Injected Dose per Gram Tissu
% Injected Dose per Gram Tissue, Liver ([2]; i.v., 120 min): 1.07 ± 0.10 % Injected Dose per Gram Tissu
% Injected Dose per Gram Tissue, Lungs ([2]; i.v., 120 min): 0.53 ± 0.06 % Injected Dose per Gram Tissu
% Injected Dose per Gram Tissue, Spleen ([2]; i.v., 120 min): 0.99 ± 0.18 % Injected Dose per Gram Tissu
% injected dose in heart, 2 h ([2]; i.v., 2 h, preliminary studies): 0.65 ± 0.05 % injected dose
Heart/Blood ([2]; ratio, i.v., 1 min): 1.22 ± 0.08
Heart/Liver ([2]; ratio, i.v., 1 min): 0.24 ± 0.03
Heart/Lungs ([2]; ratio, i.v., 1 min): 0.85 ± 0.10
Heart/Blood ([2]; ratio, i.v., 5 min): 2.36 ± 0.25
Heart/Liver ([2]; ratio, i.v., 5 min): 0.23 ± 0.02
Heart/Lung ([2]; ratio, i.v., 5 min): 1.05 ± 0.19
Heart/Blood ([2]; ratio, i.v., 15 min): 4.54 ± 0.31
Heart/Liver ([2]; ratio, i.v., 15 min): 0.28 ± 0.04
Heart/Lungs ([2]; ratio, i.v., 15 min): 1.29 ± 0.05
Heart/Blood ([2]; ratio, i.v., 120 min): 9.21 ± 1.12
Heart/Liver ([2]; ratio, i.v., 120 min): 0.86 ± 0.18
Heart/Lungs ([2]; ratio, i.v., 120 min): 1.74 ± 0.35

COc1ccc([O-])c(C=NCCCNCCNCCCN=Cc2cc(OC)ccc2[O-])c1.[67Ga+3] [(5-MeOSal)2 BAPEN, ^67 GaL^+ L = [bis(5-methoxysalicylaldimino)-N,N'-bis(3-aminopropyl)ethylenediamine]]
log P [1]: 0.53
% Injected Dose per Gram Tissue, Brain ([2]; in vivo, iv): 0.00 ± 0.00
% injected dose in heart, 1 min ([2]; in vivo, iv): 0.34 ± 0.03 % injected dose
% injected dose in heart, 2 h ([2]; in vivo, iv): 0.23 ± 0.03 % injected dose
% Injected Dose per Gram Tissue, Blood ([2]; in vivo, iv, 1 min): 0.52 ± 0.08
% Injected Dose per Gram Tissue, Brain ([2]; in vivo, iv, 1 min): 0.02 ± 0.01
% Injected Dose per Gram Tissue, Heart ([2]; in vivo, iv, 1 min): 0.46 ± 0.03
% Injected Dose per Gram Tissue, Kidney (one) ([2]; in vivo, iv, 1 min): 9.31 ± 0.32
% Injected Dose per Gram Tissue, Liver ([2]; in vivo, iv, 1 min): 3.01 ± 0.51
% Injected Dose per Gram Tissue, Lungs ([2]; in vivo, iv, 1 min): 0.55 ± 0.14
% Injected Dose per Gram Tissue, Spleen ([2]; in vivo, iv, 1 min): 0.25 ± 0.02
Heart/Blood ([2]; in vivo, iv, 1 min): 0.89 ± 0.12
% Injected Dose per Gram Tissue, Blood ([2]; in vivo, iv, 2 h): 0.08 ± 0.01
% Injected Dose per Gram Tissue, Heart ([2]; in vivo, iv, 2 h): 0.33 ± 0.03
% Injected Dose per Gram Tissue, Kidney (one) ([2]; in vivo, iv, 2 h): 1.57 ± 0.13
% Injected Dose per Gram Tissue, Liver ([2]; in vivo, iv, 2 h): 0.78 ± 0.01
% Injected Dose per Gram Tissue, Lungs ([2]; in vivo, iv, 2 h): 0.16 ± 0.02
% Injected Dose per Gram Tissue, Spleen ([2]; in vivo, iv, 2 h): 0.07 ± 0.01
Heart/Blood ([2]; in vivo, iv, 2 h): 4.33 ± 0.28
% Injected Dose per Gram Tissue, Blood ([2]; in vivo, iv, […]): 0.15 ± 0.04
% Injected Dose per Gram Tissue, Heart ([2]; in vivo, iv, […]): 0.36 ± 0.01
% Injected Dose per Gram Tissue, Kidney (one) ([2]; in vivo, iv, […]): 4.65 ± 1.29
% Injected Dose per Gram Tissue, Liver ([2]; in vivo, iv, […]): 2.09 ± 0.78
% Injected Dose per Gram Tissue, Lungs ([2]; in vivo, iv, […]): 0.22 ± 0.22
% Injected Dose per Gram Tissue, Spleen ([2]; in vivo, iv, […]): 0.09 ± 0.01
Heart/Blood ([2]; in vivo, iv, […]): 2.61 ± 0.55

[67Ga+3].[O-]c1ccccc1C=NCCCNCCNCCCN=Cc1ccccc1[O-] [Sal2 BAPEN, ^67 GaL^+ L = [bis(salicylaldimino)-N,N'-bis(3-aminopropyl)-ethylenediamine]]
log P [1]: 0.56
% injected dose in heart, 1 min ([2]; in vivo, iv): 0.45 ± 0.01 % injected dose
% injected dose in heart, 2 h ([2]; in vivo, iv): 0.41 ± 0.03 % injected dose
% Injected Dose per Gram Tissue, Blood ([2]; in vivo, iv, 1 min): 0.30 ± 0.01
% Injected Dose per Gram Tissue, Brain ([2]; in vivo, iv, 1 min): 0.02 ± 0.01
% Injected Dose per Gram Tissue, Heart ([2]; in vivo, iv, 1 min): 0.65 ± 0.02
% Injected Dose per Gram Tissue, Kidney (one) ([2]; in vivo, iv, 1 min): 12.39 ± 0.55
% Injected Dose per Gram Tissue, Liver ([2]; in vivo, iv, 1 min): 3.27 ± 0.44
% Injected Dose per Gram Tissue, Lungs ([2]; in vivo, iv, 1 min): 0.85 ± 0.09
% Injected Dose per Gram Tissue, Spleen ([2]; in vivo, iv, 1 min): 0.27 ± 0.03
Heart/Blood ([2]; in vivo, iv, 1 min): 2.15 ± 0.05
% Injected Dose per Gram Tissue, Blood ([2]; in vivo, iv, 2 h): 0.05 ± 0.01
% Injected Dose per Gram Tissue, Brain ([2]; in vivo, iv, 2 h): 0.01 ± 0.003
% Injected Dose per Gram Tissue, Heart ([2]; in vivo, iv, 2 h): 0.58 ± 0.05
% Injected Dose per Gram Tissue, Kidney (one) ([2]; in vivo, iv, 2 h): 1.85 ± 0.30
% Injected Dose per Gram Tissue, Liver ([2]; in vivo, iv, 2 h): 0.64 ± 0.10
% Injected Dose per Gram Tissue, Lungs ([2]; in vivo, iv, 2 h): 0.24 ± 0.03
% Injected Dose per Gram Tissue, Spleen ([2]; in vivo, iv, 2 h): 0.11 ± 0.01
Heart/Blood ([2]; in vivo, iv, 2 h): 12.44 ± 0.42
% Injected Dose per Gram Tissue, Blood ([2]; in vivo, iv, […]): 0.07 ± 0.01
% Injected Dose per Gram Tissue, Brain ([2]; in vivo, iv, […]): 0.01 ± 0.001
% Injected Dose per Gram Tissue, Heart ([2]; in vivo, iv, […]): 0.60 ± 0.03
% Injected Dose per Gram Tissue, Kidney (one) ([2]; in vivo, iv, […]): 4.47 ± 0.62
% Injected Dose per Gram Tissue, Liver ([2]; in vivo, iv, […]): 1.20 ± 0.16
% Injected Dose per Gram Tissue, Lungs ([2]; in vivo, iv, […]): 0.29 ± 0.02
% Injected Dose per Gram Tissue, Spleen ([2]; in vivo, iv, […]): 0.11 ± 0.01
Heart/Blood ([2]; in vivo, iv, […]): 8.34 ± 0.66
